In ChEMBL document CHEMBL3739345, “Design and synthesis of potent and selective inhibitors of BRD7 and BRD9 bromodomains” (Medchemcomm, 2015):

Key:
[1] = biological target: T1, Bromodomain-containing protein 9 (Homo sapiens) (UniProt Q9H8M2); assay: Binding affinity to human BRD9 assessed as change in melting temperature at 10 uM by differential scanning fluorimetry
T1 sequence (whole entry): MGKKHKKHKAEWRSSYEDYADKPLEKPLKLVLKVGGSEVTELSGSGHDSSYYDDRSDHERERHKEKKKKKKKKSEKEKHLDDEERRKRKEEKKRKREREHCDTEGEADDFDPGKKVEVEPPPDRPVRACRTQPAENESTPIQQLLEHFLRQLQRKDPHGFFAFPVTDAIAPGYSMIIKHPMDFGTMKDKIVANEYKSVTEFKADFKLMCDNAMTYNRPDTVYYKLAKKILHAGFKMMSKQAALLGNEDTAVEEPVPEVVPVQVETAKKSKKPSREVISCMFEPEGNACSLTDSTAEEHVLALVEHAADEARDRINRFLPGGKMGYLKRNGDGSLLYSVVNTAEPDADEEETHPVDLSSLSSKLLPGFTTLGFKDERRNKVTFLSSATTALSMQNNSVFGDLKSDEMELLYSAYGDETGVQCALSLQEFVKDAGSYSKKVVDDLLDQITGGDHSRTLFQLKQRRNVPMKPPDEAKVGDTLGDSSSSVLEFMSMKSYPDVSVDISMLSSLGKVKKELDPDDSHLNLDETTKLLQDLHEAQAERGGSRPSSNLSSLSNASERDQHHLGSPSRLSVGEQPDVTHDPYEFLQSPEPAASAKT

[2] = biological target: T2, Bromodomain-containing protein 4 (Homo sapiens, UniProt O60885); assay: Binding affinity to human BRD4 assessed as change in melting temperature at 10 uM by differential scanning fluorimetry
Peregrin (Homo sapiens) = biological target: T3, Peregrin (Homo sapiens) (UniProt P55201); assay: Binding affinity to human BRPF1B assessed as change in melting temperature at 10 uM by differential scanning fluorimetry
T3 sequence (whole entry): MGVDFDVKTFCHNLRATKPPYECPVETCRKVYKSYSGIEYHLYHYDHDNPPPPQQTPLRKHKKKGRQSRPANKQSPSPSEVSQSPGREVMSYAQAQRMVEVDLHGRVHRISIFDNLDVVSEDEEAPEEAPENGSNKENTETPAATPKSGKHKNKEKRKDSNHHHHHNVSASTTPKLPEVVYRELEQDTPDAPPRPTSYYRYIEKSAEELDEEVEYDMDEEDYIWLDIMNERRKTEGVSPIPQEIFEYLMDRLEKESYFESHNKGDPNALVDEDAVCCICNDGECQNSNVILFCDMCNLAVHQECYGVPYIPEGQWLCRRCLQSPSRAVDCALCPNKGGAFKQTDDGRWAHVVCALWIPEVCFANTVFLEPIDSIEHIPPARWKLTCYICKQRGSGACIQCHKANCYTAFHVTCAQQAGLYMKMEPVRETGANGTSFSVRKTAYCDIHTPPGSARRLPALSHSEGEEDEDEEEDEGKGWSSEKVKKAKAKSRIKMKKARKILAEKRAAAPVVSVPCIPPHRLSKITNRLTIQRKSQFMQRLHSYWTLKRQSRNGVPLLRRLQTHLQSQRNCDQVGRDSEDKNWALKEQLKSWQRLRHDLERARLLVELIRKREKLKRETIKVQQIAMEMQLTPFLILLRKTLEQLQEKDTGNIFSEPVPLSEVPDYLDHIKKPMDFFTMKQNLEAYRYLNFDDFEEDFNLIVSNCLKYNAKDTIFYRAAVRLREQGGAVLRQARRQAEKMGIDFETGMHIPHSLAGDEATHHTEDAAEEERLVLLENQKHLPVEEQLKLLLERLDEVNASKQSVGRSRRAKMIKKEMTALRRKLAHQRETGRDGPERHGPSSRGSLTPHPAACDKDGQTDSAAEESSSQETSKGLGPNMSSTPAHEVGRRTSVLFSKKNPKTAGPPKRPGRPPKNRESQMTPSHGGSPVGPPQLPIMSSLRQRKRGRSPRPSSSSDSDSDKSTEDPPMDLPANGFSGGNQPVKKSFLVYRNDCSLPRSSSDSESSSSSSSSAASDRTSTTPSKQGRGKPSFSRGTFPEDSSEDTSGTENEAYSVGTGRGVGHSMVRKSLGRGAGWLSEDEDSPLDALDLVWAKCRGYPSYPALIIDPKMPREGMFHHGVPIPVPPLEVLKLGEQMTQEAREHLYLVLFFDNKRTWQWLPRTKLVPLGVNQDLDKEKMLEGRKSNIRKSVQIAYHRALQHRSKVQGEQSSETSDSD

[3] = biological target: T4, Bromodomain-containing protein 9 (Homo sapiens, UniProt Q9H8M2); assay: Inhibition of human BRD9 by alpha screen assay
T4 sequence (Q9H8M2 whole entry): T1 sequence (whole entry)

[4] = biological target: Bromodomain adjacent to zinc finger domain protein 2B (Homo sapiens, UniProt Q9UIF8); assay: Inhibition of human BAZ2B by alpha screen assay
Chain of Bromodomain adjacent to zinc finger domain protein 2B (Q9UIF8 whole entry, the tested form may be a part): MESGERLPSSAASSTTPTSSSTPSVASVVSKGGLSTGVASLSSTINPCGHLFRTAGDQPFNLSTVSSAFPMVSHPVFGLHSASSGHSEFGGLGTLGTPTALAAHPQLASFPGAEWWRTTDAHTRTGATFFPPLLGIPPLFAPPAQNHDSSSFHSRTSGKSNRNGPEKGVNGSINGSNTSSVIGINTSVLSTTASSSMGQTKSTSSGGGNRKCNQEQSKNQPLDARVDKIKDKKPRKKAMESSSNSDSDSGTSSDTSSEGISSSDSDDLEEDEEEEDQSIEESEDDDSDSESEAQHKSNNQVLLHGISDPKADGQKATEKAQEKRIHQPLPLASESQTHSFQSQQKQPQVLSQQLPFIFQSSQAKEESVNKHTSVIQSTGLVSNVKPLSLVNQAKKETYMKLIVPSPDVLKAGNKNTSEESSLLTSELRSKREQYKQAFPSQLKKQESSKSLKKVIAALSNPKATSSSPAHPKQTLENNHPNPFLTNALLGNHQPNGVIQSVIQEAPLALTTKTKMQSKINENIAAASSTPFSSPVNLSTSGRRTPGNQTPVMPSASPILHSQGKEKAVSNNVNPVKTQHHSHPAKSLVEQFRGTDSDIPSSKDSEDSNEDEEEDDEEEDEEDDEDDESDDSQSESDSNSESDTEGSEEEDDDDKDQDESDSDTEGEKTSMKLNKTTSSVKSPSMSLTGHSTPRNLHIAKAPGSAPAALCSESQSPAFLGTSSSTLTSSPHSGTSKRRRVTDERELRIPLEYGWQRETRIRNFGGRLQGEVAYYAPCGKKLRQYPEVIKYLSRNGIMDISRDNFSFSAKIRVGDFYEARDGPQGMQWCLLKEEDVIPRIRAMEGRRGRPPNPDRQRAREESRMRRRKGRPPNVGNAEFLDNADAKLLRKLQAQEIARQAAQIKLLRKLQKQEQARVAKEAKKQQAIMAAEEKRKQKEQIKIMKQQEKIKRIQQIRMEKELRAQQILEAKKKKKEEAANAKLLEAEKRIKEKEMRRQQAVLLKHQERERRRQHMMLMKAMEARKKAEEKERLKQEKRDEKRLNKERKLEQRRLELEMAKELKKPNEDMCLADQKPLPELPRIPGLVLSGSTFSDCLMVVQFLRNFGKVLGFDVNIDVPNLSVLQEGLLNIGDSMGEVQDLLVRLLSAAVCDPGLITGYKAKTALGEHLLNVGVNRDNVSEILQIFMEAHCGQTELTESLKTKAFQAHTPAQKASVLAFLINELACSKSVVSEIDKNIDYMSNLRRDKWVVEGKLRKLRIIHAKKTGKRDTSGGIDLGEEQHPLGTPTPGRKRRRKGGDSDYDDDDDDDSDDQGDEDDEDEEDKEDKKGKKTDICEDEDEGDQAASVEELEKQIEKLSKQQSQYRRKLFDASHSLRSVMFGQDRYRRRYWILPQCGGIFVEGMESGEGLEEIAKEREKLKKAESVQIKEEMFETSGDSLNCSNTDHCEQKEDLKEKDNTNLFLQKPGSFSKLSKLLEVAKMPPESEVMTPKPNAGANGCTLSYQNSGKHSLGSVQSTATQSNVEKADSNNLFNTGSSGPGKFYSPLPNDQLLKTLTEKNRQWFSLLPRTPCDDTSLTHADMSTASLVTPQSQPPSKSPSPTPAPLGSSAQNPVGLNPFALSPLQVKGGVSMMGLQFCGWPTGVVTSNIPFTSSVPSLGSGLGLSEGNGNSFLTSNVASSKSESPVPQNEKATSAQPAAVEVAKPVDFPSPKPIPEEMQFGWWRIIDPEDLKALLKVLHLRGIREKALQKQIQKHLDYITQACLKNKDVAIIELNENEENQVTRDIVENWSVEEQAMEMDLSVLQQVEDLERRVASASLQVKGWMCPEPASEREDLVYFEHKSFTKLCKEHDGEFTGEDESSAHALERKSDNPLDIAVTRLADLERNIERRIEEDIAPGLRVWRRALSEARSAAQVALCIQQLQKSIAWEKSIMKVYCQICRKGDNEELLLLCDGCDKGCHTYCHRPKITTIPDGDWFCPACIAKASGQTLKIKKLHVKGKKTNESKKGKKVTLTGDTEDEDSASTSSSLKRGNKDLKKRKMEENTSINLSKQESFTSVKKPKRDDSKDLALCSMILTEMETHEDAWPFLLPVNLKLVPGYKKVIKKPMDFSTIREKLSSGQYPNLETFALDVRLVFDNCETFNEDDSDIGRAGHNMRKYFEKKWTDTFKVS

[5] = biological target: T2, Bromodomain-containing protein 4; assay: Inhibition of human BRD4 by alpha screen assay
Peregrin = biological target: T5, Peregrin (Homo sapiens, UniProt P55201); assay: Inhibition of human BRPF1B by alpha screen assay
T5 sequence (P55201 whole entry): T3 sequence (whole entry)

Question: For `CCCOc1ccn2c(C(C)=O)cc(-c3cccc(Cl)n3)c2c1`, which ΔTm [1] is on record?
Answer: 0.085 °C

Question: What about the ΔTm [2] of the same compound?
Answer: -0.6 °C

Question: And the ΔTm (Peregrin (Homo sapiens))?
Answer: 0.18 °C

Question: With `CC(=O)c1cc(-c2ncccc2F)c2cc(N3CCOCC3)ccn12` as the compound, how does the ΔTm [1] read?
Answer: 1.3 °C

Question: And the ΔTm [2]?
Answer: 0.41 °C

Question: And the ΔTm (Peregrin (Homo sapiens))?
Answer: 0.71 °C

Question: With `CC(=O)c1cc(-c2cc(C(=O)O)ccn2)c2cc(N3CCOCC3)ccn12` as the compound, how does the ΔTm [1] read?
Answer: -0.06 °C

Question: What about the ΔTm [2] of the same compound?
Answer: -0.24 °C

Question: And the ΔTm (Peregrin (Homo sapiens))?
Answer: 0.01 °C

Question: What does the source list for `CCCOc1ccn2c(C(C)=O)cc(-c3cc(C(=O)OC)ccn3)c2c1`?
Answer: ΔTm [1]: -0.03 °C; ΔTm [2]: -0.24 °C; ΔTm (Peregrin (Homo sapiens)): 0.09 °C

Question: How did the ΔTm [1] turn out when `CN1CCN(c2ccn3c(C(=O)C(F)(F)F)cc(-c4cccc5nccn45)c3c2)CC1` was run?
Answer: 0.3 °C

Question: And the ΔTm [2]?
Answer: -0.7 °C

Question: And the ΔTm (Peregrin (Homo sapiens))?
Answer: 0.26 °C

Question: How did the ΔTm [1] turn out when `CC(=O)c1cc(-c2cccc(Cl)n2)c2cc(N3CCOCC3)ccn12` was run?
Answer: 0.81 °C

Question: And the ΔTm [2]?
Answer: 0.28 °C

Question: And the ΔTm (Peregrin (Homo sapiens))?
Answer: 0.34 °C

Question: How did the ΔTm [1] turn out when `CC(=O)c1cc(-c2ccccn2)c2cc(N3CCOCC3)ccn12` was run?
Answer: 5.7 °C

Question: What about the IC50 [3] of the same compound?
Answer: 501 nM

Question: And the IC50 [4]?
Answer: 3.16 µM

Question: And the ΔTm [2]?
Answer: 1.9 °C

Question: What about the ΔTm (Peregrin (Homo sapiens)) of the same compound?
Answer: 1.3 °C

Question: How did the ΔTm [1] turn out when `CC(=O)c1cc(-c2nc3ccccc3s2)c2cc(N3CCOCC3)ccn12` was run?
Answer: -0.3 °C

Question: And the ΔTm [2]?
Answer: 0.55 °C

Question: What about the ΔTm (Peregrin (Homo sapiens)) of the same compound?
Answer: 0.04 °C

Question: What does the source list for `CCC(=O)c1cc(-c2cccc3nccn23)c2cc(N3CCN(C)CC3)ccn12`?
Answer: ΔTm [1]: 1.2 °C; ΔTm [2]: 0.51 °C; ΔTm (Peregrin (Homo sapiens)): 0.15 °C

Question: With `CN1CCN(c2ccn3c(C(=O)C4CC4)cc(-c4cccc5nccn45)c3c2)CC1` as the compound, how does the ΔTm [1] read?
Answer: 0.76 °C

Question: What about the ΔTm [2] of the same compound?
Answer: -0.65 °C

Question: What about the ΔTm (Peregrin (Homo sapiens)) of the same compound?
Answer: 0.085 °C

Question: What does the source list for `CC(=O)c1cc(-c2ccc(C(F)(F)F)cn2)c2cc(N3CCOCC3)ccn12`?
Answer: ΔTm [1]: -1.1 °C; ΔTm [2]: -4 °C; ΔTm (Peregrin (Homo sapiens)): 2.5 °C

Question: How did the ΔTm [1] turn out when `COc1cccc(-c2cc(C(C)=O)n3ccc(N4CCOCC4)cc23)n1` was run?
Answer: 1.3 °C

Question: And the ΔTm [2]?
Answer: 0.82 °C

Question: And the ΔTm (Peregrin (Homo sapiens))?
Answer: 0.53 °C

Question: What does the source list for `CC(=O)c1cc(-c2ccc(Cl)cn2)c2cc(N3CCOCC3)ccn12`?
Answer: ΔTm [1]: -0.23 °C; ΔTm [2]: -0.39 °C; ΔTm (Peregrin (Homo sapiens)): 0.22 °C

Question: Which ΔTm [1] does the source give for `O=C(c1cc(-c2cccc3nccn23)c2cc(N3CCOCC3)ccn12)C(F)(F)F` here?
Answer: 0.26 °C

Question: And the ΔTm [2]?
Answer: -0.4 °C

Question: And the ΔTm (Peregrin (Homo sapiens))?
Answer: 0.2 °C

Question: Which ΔTm [1] does the source give for `CC(=O)c1cc(-c2ncc(C)cc2F)c2cc(N3CCOCC3)ccn12` here?
Answer: -0.28 °C

Question: And the ΔTm [2]?
Answer: -0.42 °C

Question: And the ΔTm (Peregrin (Homo sapiens))?
Answer: 0.48 °C

Question: Which results are given for `COC(=O)c1ccnc(-c2cc(C(C)=O)n3ccc(N4CCOCC4)cc23)c1`?
Answer: ΔTm [1]: 0.35 °C; ΔTm [2]: 0.075 °C; ΔTm (Peregrin (Homo sapiens)): 0.04 °C

Question: `CC(=O)c1cc(-c2cccc3nccn23)c2cc(N3CCN(C)CC3)ccn12` was tested. Which IC50 [5] did it give?
Answer: ≤ 1000 nM

Question: And the ΔTm [1]?
Answer: 7.5 °C

Question: And the ΔTm [2]?
Answer: 4.1 °C

Question: And the ΔTm (Peregrin (Homo sapiens))?
Answer: 3.5 °C

Question: What about the IC50 (Peregrin) of the same compound?
Answer: ≤ 1000 nM

Question: For `CCCCC(=O)c1cc(-c2cccc3nccn23)c2cc(N3CCN(C)CC3)ccn12`, which ΔTm [1] is on record?
Answer: 0.27 °C

Question: And the ΔTm [2]?
Answer: -0.78 °C

Question: What about the ΔTm (Peregrin (Homo sapiens)) of the same compound?
Answer: 0.5 °C

Question: What does the source list for `CCC(=O)c1cc(-c2cccc3nccn23)c2cc(N3CCOCC3)ccn12`?
Answer: ΔTm [1]: 3 °C; ΔTm [2]: 0.98 °C; ΔTm (Peregrin (Homo sapiens)): 0.2 °C

Question: With `CC(=O)c1cc(-c2cccc3nccn23)c2cc(N3CCNCC3)ccn12` as the compound, how does the ΔTm [1] read?
Answer: 5.1 °C

Question: And the ΔTm [2]?
Answer: 2.6 °C

Question: And the ΔTm (Peregrin (Homo sapiens))?
Answer: 2.3 °C

Question: Which ΔTm [1] does the source give for `CCCOc1ccn2c(C(C)=O)cc(-c3ccccn3)c2c1` here?
Answer: 1.1 °C

Question: And the IC50 [3]?
Answer: 2510 nM

Question: And the IC50 [4]?
Answer: 2.51 µM

Question: And the ΔTm [2]?
Answer: -0.35 °C

Question: What about the ΔTm (Peregrin (Homo sapiens)) of the same compound?
Answer: 0.32 °C

Question: Which ΔTm [1] does the source give for `CC(=O)c1cc(-c2ncccn2)c2cc(N3CCOCC3)ccn12` here?
Answer: 0.035 °C

Question: And the ΔTm [2]?
Answer: 0.43 °C

Question: What about the ΔTm (Peregrin (Homo sapiens)) of the same compound?
Answer: 0.29 °C

Question: Which ΔTm [1] does the source give for `CC(=O)c1cc(-c2cccc(C)n2)c2cc(N3CCOCC3)ccn12` here?
Answer: 4.2 °C

Question: And the IC50 [3]?
Answer: 501 nM

Question: What about the IC50 [4] of the same compound?
Answer: 15.8 µM

Question: What about the ΔTm [2] of the same compound?
Answer: 1.2 °C

Question: What about the ΔTm (Peregrin (Homo sapiens)) of the same compound?
Answer: 0.65 °C

Question: For `CC(=O)c1cc(-c2ccccn2)c2cc(N3CCNCC3)ccn12`, which ΔTm [1] is on record?
Answer: 5.7 °C

Question: And the ΔTm [2]?
Answer: 4 °C

Question: And the ΔTm (Peregrin (Homo sapiens))?
Answer: 1.7 °C

Question: Which ΔTm [1] does the source give for `CC(C)C(=O)c1cc(-c2cccc3nccn23)c2cc(N3CCN(C)CC3)ccn12` here?
Answer: 1 °C

Question: And the ΔTm [2]?
Answer: 0.19 °C

Question: What about the ΔTm (Peregrin (Homo sapiens)) of the same compound?
Answer: 0.71 °C
